The text below walks through data of patent US6552070B2, “Health food useful for preventing liver and biliary dysfunctions containing an alkanoyl L-carnitine and Silybum marianum extract” (Sigma-Tau HealthScience S.p.A., priority 2000, dated 2003).

In assay [1] the test system is rat liver cells. The assay can be described thus: Protection against CCl4 toxicity on isolated liver cell cultures. Conditions: CCl4 100 mg L^−1; for Concentration of AlaAT in supernatant of liver cells exposed to CCl4 / Concentration of AspAT in supernatant of liver cells exposed to CCl4: I 100 mg L^−1, P 100 mg L^−1, S 50 mg L^−1; for Inhibition of toxic and lipoperoxidative effects caused by CCl4 on liver cell cultures (in words): summary of Tables 1 and 2.

The test system of assay [2] is galactosamine-induced liver intoxication. Put plainly: Protection against hepatotoxic effects induced by galactosamine in the rat. In kind it is in vivo. The protocol: In these tests the method adopted was that described by Reuter (Reuter W., Trends in the Therapy of Liver Diseases Proceeding, Ed. A. Bertelli, pp. 121, 1974, Karger Basel 1975).
Rats weighing approximately 250 g received daily oral administrations for two days consecutively of 200 mg/kg of isovaleryl L-carnitine or 200 mg/kg of propionyl L-carnitine or 100 mg/kg of silymarin or a combination of these compounds at the same doses. After 24 hours, the same rats were administered 400 mg/kg i.p. of galactosamine. After a further 24 hours, blood samples taken from the animals were used to determine both glutamic-oxalacetic […] (GOT) and the bilirubin present in plasma, according to the method described by Keppler (Keppler D., Exp. Mol. Pathol, 9, 279, 1968).

[3] abbreviates: rat plasma 24 hours after galactosamine 400 mg/kg i.p., oral pretreatment two days, alkanoyl L-carnitine 200 mg/kg, silymarin 100 mg/kg.

With `CC(C)CC(=O)O[C@H](CC(=O)[O-])C[N+](C)(C)C` [Isovaleryl L-carnitine, isovaleryl L-carnitine], in assay [1] (4 hours), the “Concentration of AlaAT in supernatant of liver cells exposed to CCl4” value (shortened to “Concentration of AlaAT”) was 19.4 ± 2.4 nmol/min/L and the “Concentration of AspAT in supernatant of liver cells exposed to CCl4” value (“Concentration of AspAT” for short) was found to be 6.9 ± 1.1 nmol/min/L. In addition, in assay [1] (8 hours), the “Concentration of AlaAT” value was 16.7 ± 3.1 nmol/min/L and the “Concentration of AspAT” value worked out at 6.2 ± 0.9 nmol/min/L. In assay [1] (16 hours), the “Concentration of AlaAT” value turned out to be 15.6 ± 2.7 nmol/min/L and the “Concentration of AspAT” value was found to be 5.5 ± 1.2 nmol/min/L. The “Inhibition of toxic and lipoperoxidative effects caused by CCl4 on liver cell cultures (in words)” value in assay [1] was “partly inhibiting”. In addition, in assay [2] (rat), the “Protective effect against galactosamine-induced liver intoxication (in words)” value is recorded as “protective activity”. Besides, in assay [2] (setting [3]), the Bilirubin turned out to be 0.15 ± 0.04 and the GOT was determined as 215 ± 30.5. The GluDH in assay [2] (rat, 24 hours after galactosamine 400 mg/kg i.p., oral pretreatment two days, alkanoyl L-carnitine 200 mg/kg, silymarin 100 mg/kg) is recorded as 64 ± 6.8.

Regarding `CCC(=O)O[C@H](CC(=O)[O-])C[N+](C)(C)C` [Propionyl L-carnitine, propionyl L-carnitine], the results for the “Concentration of AlaAT” value in assay [1] (4 hours), in assay [1] (8 hours) and in assay [1] (16 hours) were 22.3 ± 4.1 nmol/min/L, 18.4 ± 2.3 nmol/min/L and 16.6 ± 1.9 nmol/min/L, respectively. In addition, the “Concentration of AspAT” value in assay [1] (4 hours) worked out at 7.5 ± 0.9 nmol/min/L; in assay [1] (8 hours) it was 5.5 ± 1.2 nmol/min/L; in assay [1] (16 hours) it was 5.2 ± 1.4 nmol/min/L. For the same compound, the “Inhibition of toxic and lipoperoxidative effects caused by CCl4 on liver cell cultures (in words)” value in assay [1] is recorded as “partly inhibiting”. Further, in assay [2] (rat, oral pretreatment, galactosamine 400 mg/kg i.p.), the “Enzyme activity (GOT) and bilirubin after galactosamine (in words)” value was “reduced”.
